US7354941B2, “Nicotinamide benzofused-heterocyclyl derivatives useful as selective inhibitors of PDE4 isozymes” (Pfizer Products Inc., priority 2000, dated 2008)

Columns and labels:
[1] = tested on: high-affinity rolipram binding site (Sr); conditions: cited from earlier work
[2] = in vivo; cited from earlier work
TNF-α mRNA expression = conditions: collagen II treated mice; cited from earlier work
[3] = tested on: rheumatoid arthritis patients; conditions: 35 patients, t.i.d., placebo-controlled; cited from earlier work
[4] = tested on: antigen-induced lung eosinophilia; conditions: guinea-pig; cited from earlier work
[5] = tested on: streptococcal cell wall (SCW)-induced arthritis; conditions: in vivo; cited from earlier work
patients with COPD = conditions: cited from earlier work
patients = conditions: orally 5, 10, and 15 mg b.i.d., week 2; cited from earlier work
[6] = tested on: antigen-induced bronchoconstriction; conditions: guinea-pig; cited from earlier work
colitis = conditions: rat; cited from earlier work
guinea-pig trachea = conditions: cited from earlier work
PDE4 = conditions: cited from earlier work
[7] = tested on: isolated pulmonary artery rings; conditions: rings from normal rats and rats with hypoxia-induced pulmonary hypertension; cited from earlier work
[8] = tested on: Patients with severe COPD; conditions: cited from earlier work; for mean pulmonary artery pressure: oral administration, severe COPD
allergic rhinitis = conditions: in vivo; cited from earlier work
[9] = tested on: seratonin-induced bronchoconstriction; conditions: dog; cited from earlier work
atopic dermatitis = conditions: topical, cited from earlier work
[10] = tested on: antigen-induced bronchospasm; conditions: rat; cited from earlier work
rhinorrhea = conditions: antigen-challenged pig; cited from earlier work
[11] = tested on: human peripheral blood mononuclear cells (HPBM); conditions: normal patients and subjects with atopic dermatitis; cited from earlier work
[12] = tested on: psoriatic epidermal slices; conditions: cited from earlier work
[13] = tested on: endotoxin-induced acute renal failure; conditions: cited from earlier work
psoriatic lesions = conditions: two double-blind studies versus vehicle; cited from earlier work
epidermal basal cells = conditions: primary culture; cited from earlier work
[14] = tested on: histamine-induced and antigen-induced bronchoconstriction; conditions: guinea-pig; cited from earlier work
[15] = tested on: patients suffering from septic shock; conditions: 1 mg/kg/hr, after 24 hours; cited from earlier work
[16] = tested on: lipopolysaccharide-induced bowel erythrocyte extravasation; conditions: pretreatment i.p. 3×, rats; cited from earlier work

Question: Which “affinity at the Sr” value [1] does the source give for O=c1c2cccnc2n(-c2cccc([N+](=O)[O-])c2)c(=O)n1Cc1ccncc1 [RS-23,544] here?
Answer: Its value is “high affinity at the Sr”.

Question: And the emesis [2]?
Answer: The emesis was “elicit emesis”.

Question: What does the source list for COc1ccc(C(=O)Nc2c(Cl)cncc2Cl)cc1OC1CCCC1 [RP-73,401]?
Answer: TNF-α mRNA expression at the pannus/cartilage interface of paw joints (TNF-α mRNA expression): decrease TNF-α mRNA expression; clinical improvement [3]: positive trend towards clinical improvement; inhibition of antigen-induced lung, BAL and airway eosinophilia, EPO, PAF- and ozone-induced AHR, IL-5 induced pleural eosinophila [4]: active; disease: joint destruction, synovitis, and fibrosis [5]: significant amelioration of disease; affinity at the Sr [1]: high affinity at the Sr; emesis [2]: elicit emesis

Question: With CC(NC(=O)c1cccnc1Oc1ccc2nonc2c1)c1ccc(C(C)(C)O)cc1F (racemic) [Example 8, (±)-2-(Benzo[2,1,3]oxadiazol-5-yloxy)-N-{1-[2-fluoro-4-(1-hydroxy-1-methyl-ethyl)-phenyl]-ethyl}-nicotinamide] as the compound, how does the melting point read?
Answer: The melting point was 128 to 130 °C.

Question: For COc1ccc([C@]2(C#N)CC[C@@H](C(=O)O)CC2)cc1OC1CCCC1 [SB-207,499], which “improvement in trough FEV1” value (patients with COPD; 15 mg b.i.d., week 6) is on record?
Answer: Its value is 11%.

Question: What about the “maximum mean difference in trough FEV1 compared with placebo” value (patients with COPD; 15 mg b.i.d., week 6) of the same compound?
Answer: Its value is 160 mL.

Question: And the “FEV1 and forced vital capacity (FVC)” value (patients with COPD; 15 mg twice a day for six weeks)?
Answer: Its value is “increrases in FEV1 and forced vital capacity (FVC)”.

Question: And the FEV1 (patients with COPD; four week trial)?
Answer: The FEV1 was “evidence of improved FEV1”.

Question: What about the “affinity at the Sr” value [1] of the same compound?
Answer: The value was “comparatively low affinity at the Sr”.

Question: And the “trough FEV1 from placebo” value (patients)?
Answer: The value was “significant increases”.

Question: For CC(C)(O)c1ccc(CNC(=O)c2cccnc2Oc2ccc3nonc3c2)c(Cl)c1 [Example 9, 2-(Benzo[2,1,3]oxadiazol-5-yloxy)-N-[2-chloro-4-(1-hydroxy-1-methyl-ethyl)-benzyl]-nicotinamide], which melting point is on record?
Answer: Its melting point is 171 to 173 °C.

Question: What does the source list for CCCn1c(=O)c2[nH]cnc2n(-c2ccc(Cl)cc2)c1=O [LAS-31025]?
Answer: inhibition of antigen-induced bronchoconstriction [6]: active; effects in dextran sulfate induced colitis model (colitis): beneficial effects comparable to prednisolone; effects in models of colitis (colitis): beneficial effects

Question: For O=S1(=O)CCN(c2nc(NC3CC3)nc(C3CC3)n2)C1 [(0.0.56)], which “relaxant activity, guinea-pig trachea model” value (guinea-pig trachea) is on record?
Answer: The value was “potent relaxant agents”.

Question: What about the IC50 (PDE4) of the same compound?
Answer: Its IC50 is 150 nM.

Question: Which melting point does the source give for CC(NC(=O)c1cccnc1Oc1ccc2nonc2c1)c1ccc(C(C)(C)O)cc1 (racemic) [Example 17, (±)-2-(Benzo[2,1,3]oxadiazol-5-yloxy)-N-{1-[4-(1-hydroxy-1-methyl-ethyl)-phenyl]ethyl}-nicotinamide] here?
Answer: The melting point was 116 to 117 °C.

Question: What does the source list for Cc1[nH]c(=O)c(C#N)cc1-c1ccncc1 [milrinone]?
Answer: relaxant activities of isoproterenol and forskolin [7]: same effect has been observed; mean pulmonary artery pressure [8]: decreases in mean pulmonary artery pressure

Question: With COc1ccc(-c2nc3cnccc3o2)c2c1OC1(CCCC1)C2 [(0.0.48)] as the compound, how does the IC50 (PDE4) read?
Answer: Its IC50 is 2.5 nM.

Question: For CC(=O)c1ccc(CNC(=O)c2cccnc2Oc2ccc3nonc3c2)cc1 [Example 7, N-[4-Acetyl-benzyl]-2-[benzo[2,1,3]oxadiazol-5-yloxy]-nicotinamide], which melting point is on record?
Answer: Its melting point is 154 to 156 °C.

Question: With O=C(Nc1c(Cl)cncc1Cl)C(=O)c1cn(Cc2ccc(F)cc2)c2ccc(O)cc12 [AWD-12,281] as the compound, how does the “activity in a rat model of allergic rhinitis” value (allergic rhinitis) read?
Answer: Its value is “active”.

Question: For Nc1nc2c([nH]1)c(=O)n(CC1CC1)c(=O)n2CC1CC1 [BRL-61,063], which “adverse events of nausea and vomiting” value [2] is on record?
Answer: Its value is “adverse events of nausea and vomiting”.

Question: With COc1ccc(/C(C)=N/OC(N)=O)cc1OC1CCCC1 [WAY-PDA-641] as the compound, how does the “inhibition of seratonin-induced bronchoconstriction” value [9] read?
Answer: The value was “active”.

Question: With COc1ccc(C2CNC(=O)NC2)cc1O[C@H]1C[C@@H]2CC[C@H]1C2 [CP-80,633] as the compound, how does the inflammatory parameters (atopic dermatitis; bilaterally over eight days, twenty patients) read?
Answer: Its inflammatory parameters is “effectively inhibit all of the inflammatory parameters tested”.

Question: And the adverse effects (atopic dermatitis; eight days)?
Answer: Its adverse effects is “no adverse effects”.

Question: What about the “affinity at the Sr” value [1] of the same compound?
Answer: Its value is “high affinity at the Sr”.

Question: What about the emesis [2] of the same compound?
Answer: The emesis was “elicit emesis”.

Question: With COc1ccc(CNc2c(C)noc2C)cc1OC1CCCC1 [RPR-132294] as the compound, how does the “inhibition of antigen-induced bronchospasm” value [10] read?
Answer: The value was “activity in the inhibition of antigen-induced bronchospasm”.

Question: For O=C(NCc1ccc(C(O)C(F)(F)F)cc1)c1cccnc1Oc1ccc2nonc2c1 (racemic) [Example 5, (±)-2-[Benzo[2,1,3]oxadiazol-5-yloxy]-N-[4-[2,2,2-trifluoro-1-hydroxy-ethyl]-benzyl]-nicotinamide], which melting point is on record?
Answer: The melting point was 164 to 166 °C.

Question: With CCCn1c(=O)c2c(C)nc(CC)n2c2nc(OC)ccc21 [Example D-22888] as the compound, how does the “anti-allergic effect and rhinorrhea” value (rhinorrhea) read?
Answer: Its value is “exhibit a strong anti-allergic affect and to inhibit rhinorrhea”.

Question: Which results are given for COc1ccc(CC2CNC(=O)N2)cc1OC1CCCC1 (stereo not shown) [Ro 20-1724]?
Answer: inhibition of the proliferation of HPBM [11]: concentration-related inhibition; increase in cAMP concentration ([12]; keratomed psoriatic epidermis): 1395%; cAMP concentrations over controls ([12]; psoriatic epidermal slices and keratomed psoriatic epidermal slices): very marked elevation of cAMP concentrations over controls; survival rates ([13]; endotoxin-treated rats): improve survival rates; renal vascular resistance, renal blood flow and glomerular filtration rate ([13]; post-treatment at 10 μg/kg/min): markedly attenuates endotoxin-induced increases in renal vascular resistance and decreases in renal blood flow and glomerular filtration rate; urinary cAMP excretion ([13]; post-treatment at 10 μg/kg/min): significantly increases urinary cAMP excretion; psoriatic lesions and adverse effects (psoriatic lesions): improve psoriatic lesions without adverse systemic or cutaneous effects; cAMP concentrations (epidermal basal cells): three-fold increase

Question: With CSc1ccc(C(=O)c2[nH]c(=O)[nH]c2C)cc1 [enoximone] as the compound, how does the “mean pulmonary artery pressure” value [8] read?
Answer: The value was “decreases in mean pulmonary artery pressure”.

Question: And the airway resistance ([8]; patients hospitalized with decompensated COPD)?
Answer: Its airway resistance is “reduce airway resistance”.

Question: With CC1CC1c1nc(NC2CC2)nc(N2CCOCC2)n1 (stereo not shown) [(0.0.57)] as the compound, how does the “relaxant activity, guinea-pig trachea model” value (guinea-pig trachea) read?
Answer: Its value is “potent relaxant agents”.

Question: And the IC50 (PDE4)?
Answer: The IC50 was 140 nM.

Question: For O=c1c2c(ncn2Cc2cccnc2)c2cccnc2n1-c1ccccc1 [KF19514], which “inhibition of histamine- and antigen-induced bronchoconstriction, PAF- and antigen-induced eosinophilia, AHR, bronchospasm, anaphylactic bronchoconstriction” value [14] is on record?
Answer: Its value is “activity”.

Question: Which IL-6 levels [15] does the source give for CC(=O)CCCCn1c(=O)c2c(ncn2C)n(C)c1=O [pentoxifylline] here?
Answer: Its IL-6 levels is “significantly increased”.

Question: What about the TNF-α levels [15] of the same compound?
Answer: Its TNF-α levels is “significantly lowered”.

Question: What about the “lipopolysaccharide-induced bowel erythrocyte extravasation” value [16] of the same compound?
Answer: Its value is “reduces lipopolysaccharide-induced bowel erythrocyte extravasation”.

Question: For CC(O)c1ccc(CNC(=O)c2cccnc2Oc2ccc3nonc3c2)s1 (racemic) [Example 6, (±)-2-[Benzo[2,1,3]oxadiazol-5-yloxy]-N-[5-[1-hydroxy-ethyl]-thiophen-2-ylmethyl]-nicotinamide], which melting point is on record?
Answer: The melting point was 81 to 83 °C.

Question: For O=c1c2[nH]cnc2c2cccnc2n1-c1ccccc1 [KF17625], which “inhibition of histamine- and antigen-induced bronchoconstriction, PAF- and antigen-induced eosinophilia, AHR, bronchospasm, anaphylactic bronchoconstriction” value [14] is on record?
Answer: The value was “activity”.

Question: For CC(C)(O)c1ccc(CNC(=O)c2cccnc2Oc2ccc3nonc3c2)c(F)c1 [Example 2, 2-[Benzo[2,1,3]oxadiazol-5-yloxy]-N-[2-fluoro-4-[1-hydroxy-1-methyl-ethyl]-benzyl]-nicotinamide], which melting point is on record?
Answer: The melting point was 160 to 161 °C.
